Experimental data as given in patent US20130065818A1, “Arylamide Compounds And Compositions And Uses Thereof” (POLYMEDIX, priority 2006, published 2013).
≈ marks a conversion by molar mass, not a printed value. Entries after “also recorded” stand apart in the source; their conditions may differ.

Legend:
[1] = test system: fluoroquinolone-resistant, methicillin-resistant Staphylococcus aureus (K950); test: NZW rabbit keratitis model, corneal colony counts; assay type: in vivo; settings: for Statistical comparison of corneal colony counts (< = significantly fewer colony counts): drops every 15 min
From the text: (§1) One purpose of the following experiments was to compare the efficacy of 1% Oligomer 2, 0.5% Oligomer 2, and 5% vancomycin in the treatment of a fluoroquinolone-resistant, methicillin-resistant Staphylococcus aureus infection in the NZW rabbit keratitis model with or without intact corneal epithelia.
Nothing was done to the right eyes.
as §1, with “0.25%” for “1%”, “with and without 0.005% benzalkonium chloride,” for “0.5% Oligomer 2,”, “epithelia. The 0.005% benzalkonium chloride has been added to try to increase the penetration of 0.25% Oligomer 2 through the corneal epithelium.” for “epithelia.”
One purpose of the following experiments was to determine the efficacy of 0.25% Oligomer 4, with and without 200 μM Farnesol, and 200 μM Farnesol in the treatment of a fluoroquinolone-resistant and methicillin-resistant Staphylococcus aureus infection in the NZW rabbit keratitis model with or without intact corneal epithelia. The 200 μM Farnesol has been added to try to increase the efficacy and penetration of 0.25% Oligomer 4 through the corneal epithelium.

[2] = test system: Fluoroquinolone-Resistant Methicillin-Resistant Staphylococcus aureus Strain K950; test: MIC characterization of strain K950; assay type: cell-based; settings: read-out: MIC (Minimum Inhibitory Concentration)
[3] = NZW rabbit keratitis model, clinical evaluation (Total Ocular Score); settings: Oligomer 2 study, N 3
Experimental: Fifteen rabbits were received from Myrtles' Rabbitry, Thompson Station, TN. The clinical isolate of fluoroquinolone-resistant, methicillin-resistant (MRSA) Staphylococcus aureus (K950) was subcultured on 5% sheep blood agar and incubated at 37° C. in 6% CO2 overnight. The next morning, the MRSA strain was suspended in sterile trypticase soy broth to a 0.5 McFarland Standard, containing approximately 5×10^8 cfu/ml of bacteria. The absorbance of the suspension was measured at 650 nm using a Beckman DU-70 spectrophotometer. OD readings of 0.07 corresponded to 5×10^8 cfu/ml of bacteria. This concentration was appropriately diluted in sterile trypticase soy broth to provide the inoculum of approximately 1,000 (1.0×10^3) cfu/eye in 25 μl. Colony counts were performed on the inoculum to determine the actual cfu inoculated. Following general anesthesia with ketamine and xylazine and topical anesthesia with proparacaine and prior to bacterial inoculation in the left eyes, 6 mm areas of the corneal epithelia was removed centrally with an Amoils epithelial scrubber. Nothing was done to the right eyes. The 15 rabbits were then inoculated intrastromally in both eyes with 25 μl of the bacterial dilution of approximately 10^3 cfu/eye of the bacteria. The bacterial inoculation of the left eyes was directly under the epithelial defect created by the Amoils epithelial scrubber. The epithelia were removed in the left corneas in order to determine whether this layer of the cornea is a barrier for Oligomer 2 penetration when compared to the right cornea with an intact epithelium. A colony count was done on the inoculum to determine the actual cfu inoculated. The rabbits were immediately treated with analgesia in the form of and intramuscular injection of ketoprofen, 1.5 mg/kg. After 4 hours, the 15 rabbits were divided into 4 treatment groups and one untreated control group sacrificed at the onset of therapy. Both eyes of each rabbit of the treatment groups were treated with one 37 μl drop of the coded solutions or control Saline or 1 drop of vancomycin from its dropper bottle. The Oligomer 2 concentrations were masked and labeled as 1 and 2. The masked concentrations were 1% Oligomer 2 and 0.5% Oligomer 2 but the specific concentrations of solutions were not known to the lab workers who carried out the experiment. The vancomycin and control (Tris-Buffered Saline) were not masked.
Treatment was scheduled for every 15 minutes for 5 hours (21 total doses). However, PMX-1 and PMX-2 were exhausted after the 19th dose. Therefore, the actual treatment was 15 minutes for 4.5 hours (19 total doses). The 3 rabbits in group V were sacrificed 4 hours PI and large 9.5 mm buttons were removed from the corneas. These were placed in 1 ml of PBS and kept on ice. The corneal buttons were homogenized for 25 seconds on ice using the motorized homogenizer. After homogenization, colony counts were done on the homogenates using 5% sheep blood agar plates to determine the amount of bacteria contained in the corneas at the onset of therapy. Following the completion of therapy, the eyes were examined for clinical signs of infection. One hour after the final treatment, the treated rabbits (Groups I-IV) were sacrificed and large 9.5 mm buttons were removed from the corneas. These were placed in 1 ml of PBS and kept on ice. The corneal buttons were homogenized for 25 seconds on ice using the motorized homogenizer. After homogenization, colony counts were performed on the homogenates using 5% sheep blood agar plates to determine the amount of bacteria contained in the corneas after treatment. The next morning, the plates were counted and the number of cfu/eye of Staphylococcus aureus was determined for each cornea.
Fifteen rabbits were received from Myrtles' Rabbitry, Thompson Station, TN.

Q: Which “Statistical comparison of corneal colony counts (< = significantly fewer colony counts)” value ([1]; Ker-1 (Example 9), abraded (removed) epithelium, 19 doses) does the source give for `CN[C@H](CC(C)C)C(=O)N[C@H]1C(=O)N[C@@H](CC(N)=O)C(=O)N[C@H]2C(=O)N[C@H]3C(=O)N[C@H](C(=O)N[C@H](C(=O)O)c4cc(O)cc(O)c4-c4cc3ccc4O)[C@H](O)c3ccc(c(Cl)c3)Oc3cc2cc(c3O[C@@H]2O[C@H](CO)[C@@H](O)[C@H](O)[C@H]2O[C@H]2C[C@](C)(N)[C@H](O)[C@H](C)O2)Oc2ccc(cc2Cl)[C@H]1O` [Vancomycin, reference compound] here?
A: Its value is “Vancomycin<Saline Control”.

Q: What about the “Statistical comparison of corneal colony counts (< = significantly fewer colony counts)” value ([1]; Ker-1 (Example 9), intact epithelium, 19 doses) of the same compound?
A: The value was “Vancomycin<Saline Control; also recorded: Vancomycin<PMX-1; also recorded: Vancomycin<PMX-2”.

Q: And the “Statistical comparison of corneal colony counts (< = significantly fewer colony counts)” value ([1]; Ker-2 (Example 10), abraded (removed) epithelium, 21 doses)?
A: The value was “Vancomycin<Saline Control”.

Q: What about the “Statistical comparison of corneal colony counts (< = significantly fewer colony counts)” value ([1]; Ker-2 (Example 10), intact epithelium, 21 doses) of the same compound?
A: Its value is “Vancomycin<Saline Control; also recorded: Vancomycin<PMX-B”.

Q: And the “Effect of Abraded Epithelium on colony counts (Intact vs. Abraded, two sample T-test)” value ([1]; Log10 CFU/ml, < = significantly fewer colony counts)?
A: Its value is “Abraded = Intact”.

Q: And the “Effect of Abraded Epithelium on Effectiveness of Each Test Solution (colony counts, abraded vs. intact)” value ([1]; Oligomer 2 study, two sample T-test, < = significantly fewer colony counts)?
A: The value was “Abraded = Intact”.

Q: What about the MIC [2] of the same compound?
A: Its MIC is 2 µg/mL (≈ 1.38 µM).

Q: And the “Total Ocular Score, Median” value ([3]; abraded epithelium)?
A: The value was 9.5.

Q: What about the “Total Ocular Score, Median” value ([3]; intact epithelium) of the same compound?
A: The value was 9.5.
